# Source: PubChem BioAssay (NCI)
#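 Briefly, cells in 96-well plates were exposed to five compound concentrations for 48 h, and endpoints were estimated by linear interpolation. GI50 is the concentration that inhibits growth by half. TGI denotes the concentration required for complete inhibition of growth.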
# Key:
# Experiment in all cases: DTP human tumour cell line panel, 48 h
# BT-549 breast = system: BT-549 breast
# OVCAR-4 ovarian = system: OVCAR-4 ovarian
# T-47D breast = system: T-47D breast
# SK-MEL-2 melanoma = system: SK-MEL-2 melanoma
# RXF 393 renal = system: RXF 393 renal
# M14 melanoma = system: M14 melanoma
# NCI-H460 lung = system: NCI-H460 lung
# KM12 colon = system: KM12 colon
# COLO 205 colon = system: COLO 205 colon
# UACC-62 melanoma = system: UACC-62 melanoma
# HL-60(TB) leukemia = system: HL-60(TB) leukemia
# SK-OV-3 ovarian = system: SK-OV-3 ovarian
# HOP-92 NSCLC = system: HOP-92 NSCLC
# TK-10 renal = system: TK-10 renal
# CAKI-1 renal = system: CAKI-1 renal
# A498 renal = system: A498 renal
# SF-539 CNS = system: SF-539 CNS
# OVCAR-5 ovarian = system: OVCAR-5 ovarian
# SK-MEL-28 melanoma = system: SK-MEL-28 melanoma
# CCRF-CEM leukemia = system: CCRF-CEM leukemia
# OVCAR-3 ovarian = system: OVCAR-3 ovarian
# MDA-MB-231 breast = system: MDA-MB-231 breast
# MALME-3M melanoma = system: MALME-3M melanoma
# NCI-H226 lung = system: NCI-H226 lung
# NCI/ADR-RES ovarian = system: NCI/ADR-RES ovarian
# MDA-MB-435 = system: MDA-MB-435
# MOLT-4 leukemia = system: MOLT-4 leukemia
# IGROV1 ovarian = system: IGROV1 ovarian
# SN12C renal = system: SN12C renal
# HOP-62 NSCLC = system: HOP-62 NSCLC
# NCI-H23 lung = system: NCI-H23 lung
# EKVX NSCLC = system: EKVX NSCLC
# UO-31 renal = system: UO-31 renal
# A549 NSCLC = system: A549 NSCLC
# ACHN renal = system: ACHN renal
# RPMI-8226 leukemia = system: RPMI-8226 leukemia
# SNB-75 CNS = system: SNB-75 CNS
# HCC-2998 colon = system: HCC-2998 colon
# HS 578T breast = system: HS 578T breast
# PC-3 prostate = system: PC-3 prostate
# SR leukemia = system: SR leukemia
# SNB-19 CNS = system: SNB-19 CNS
# SF-268 CNS = system: SF-268 CNS
# MDA-MB-468 breast = system: MDA-MB-468 breast
# DU-145 prostate = system: DU-145 prostate
# K-562 leukemia = system: K-562 leukemia
compound,measurement,setting,value
CN1CCN(c2ccc(Nc3nc(N4CCN(S(=O)(=O)c5ccc(Cl)cc5)CC4)c4sccc4n3)cc2)CC1,GI50,BT-549 breast,20.8 µM
same,TGI,BT-549 breast,58.7 µM
same,GI50,OVCAR-4 ovarian,14.9 µM
same,TGI,OVCAR-4 ovarian,38.7 µM
same,GI50,T-47D breast,7.17 µM
same,TGI,T-47D breast,35.9 µM
same,GI50,SK-MEL-2 melanoma,19.4 µM
same,TGI,SK-MEL-2 melanoma,40.1 µM
same,GI50,RXF 393 renal,1.91 µM
same,TGI,RXF 393 renal,3.68 µM
same,GI50,M14 melanoma,1.85 µM
same,TGI,M14 melanoma,3.62 µM
same,GI50,NCI-H460 lung,1.93 µM
same,TGI,NCI-H460 lung,3.69 µM
same,GI50,KM12 colon,4.85 µM
same,TGI,KM12 colon,20 µM
same,GI50,COLO 205 colon,2.67 µM
same,TGI,COLO 205 colon,7.54 µM
same,GI50,UACC-62 melanoma,1.71 µM
same,TGI,UACC-62 melanoma,3.25 µM
same,GI50,HL-60(TB) leukemia,2.1 µM
same,TGI,HL-60(TB) leukemia,4.47 µM
same,GI50,SK-OV-3 ovarian,26.8 µM
same,TGI,SK-OV-3 ovarian,69.2 µM
same,GI50,HOP-92 NSCLC,10.7 µM
same,TGI,HOP-92 NSCLC,28.7 µM
same,GI50,TK-10 renal,6.47 µM
same,TGI,TK-10 renal,21.6 µM
same,GI50,CAKI-1 renal,11.6 µM
same,TGI,CAKI-1 renal,27.8 µM
same,GI50,A498 renal,17.5 µM
same,TGI,A498 renal,31.6 µM
same,GI50,SF-539 CNS,1.69 µM
same,TGI,SF-539 CNS,3.16 µM
same,GI50,OVCAR-5 ovarian,15.6 µM
same,TGI,OVCAR-5 ovarian,39.5 µM
same,GI50,SK-MEL-28 melanoma,1.73 µM
same,TGI,SK-MEL-28 melanoma,3.36 µM
same,GI50,CCRF-CEM leukemia,4.47 µM
same,TGI,CCRF-CEM leukemia,32.6 µM
same,GI50,OVCAR-3 ovarian,2.85 µM
same,TGI,OVCAR-3 ovarian,7.42 µM
same,GI50,MDA-MB-231 breast,1.71 µM
same,TGI,MDA-MB-231 breast,3.27 µM
same,GI50,MALME-3M melanoma,1.64 µM
same,TGI,MALME-3M melanoma,3.03 µM
same,GI50,NCI-H226 lung,18.7 µM
same,TGI,NCI-H226 lung,55.5 µM
same,GI50,NCI/ADR-RES ovarian,10.9 µM
same,TGI,NCI/ADR-RES ovarian,39.7 µM
same,GI50,MDA-MB-435,1.76 µM
same,TGI,MDA-MB-435,3.31 µM
same,GI50,MOLT-4 leukemia,2.21 µM
same,TGI,MOLT-4 leukemia,5.78 µM
same,GI50,IGROV1 ovarian,14.5 µM
same,TGI,IGROV1 ovarian,44.8 µM
same,GI50,SN12C renal,13.7 µM
same,TGI,SN12C renal,34.7 µM
same,GI50,HOP-62 NSCLC,28.9 µM
same,TGI,HOP-62 NSCLC,88.8 µM
same,GI50,NCI-H23 lung,19.1 µM
same,TGI,NCI-H23 lung,66.3 µM
same,GI50,EKVX NSCLC,22 µM
same,TGI,EKVX NSCLC,59.8 µM
same,GI50,UO-31 renal,13.7 µM
same,TGI,UO-31 renal,29.6 µM
same,GI50,A549 NSCLC,4.35 µM
same,TGI,A549 NSCLC,24.9 µM
same,GI50,ACHN renal,3.03 µM
same,TGI,ACHN renal,11.4 µM
same,GI50,RPMI-8226 leukemia,2.89 µM
same,TGI,RPMI-8226 leukemia,6.13 µM
same,GI50,SNB-75 CNS,9.97 µM
same,TGI,SNB-75 CNS,24.3 µM
same,GI50,HCC-2998 colon,2.64 µM
same,TGI,HCC-2998 colon,6.18 µM
same,GI50,HS 578T breast,13.1 µM
same,TGI,HS 578T breast,46.7 µM
same,GI50,PC-3 prostate,4.01 µM
same,TGI,PC-3 prostate,> 100 µM
same,GI50,SR leukemia,1.92 µM
same,TGI,SR leukemia,4.82 µM
same,GI50,SNB-19 CNS,3.69 µM
same,TGI,SNB-19 CNS,17.1 µM
same,GI50,SF-268 CNS,13.5 µM
same,TGI,SF-268 CNS,39 µM
same,GI50,MDA-MB-468 breast,1.64 µM
same,TGI,MDA-MB-468 breast,3.14 µM
same,GI50,DU-145 prostate,3.36 µM
same,TGI,DU-145 prostate,10.8 µM
same,GI50,K-562 leukemia,2.16 µM
same,TGI,K-562 leukemia,6.04 µM
